# Test results taken from article PMC4051503 (2014).
# Tested on: d(AAAATTTT)2 (DNA, duplex) AAAATTTT
# Test: X-ray crystallography (2.1 Å)
# Conditions: 8 mM MnCl2; 40 mM sodium cacodylate pH 6.5, 0.5 mM spermine, 5% MPD, 15 °C; 0.25 mM duplex, 0.75 mM CD27
compound,measurement,value
c1cc(Nc2ccc(NC3=NCCN3)cc2)ccc1NC1=NCCN1,binding,yes
